Laboratory results as given in US7759366B2 (Sanofi-Aventis, priority 2006, dated 2010).
Structures can show the parent of a compound that is named as a salt. Where two headings read alike, the source gives them in different places.

Columns and labels:
hCB2R = hCB2R (Homo sapiens, UniProt P34972); assay: In vitro functional assay (FLIPR, intracellular Ca2+) with recombinant HEK293 cells, CB2;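 note: intracellular Ca2+ was tracked with the fluorescent dye Fluo-4 loaded into the cells before test substance addition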
Description: Function-testing assays were performed by means of the FLIPR technique (“Fluorometric Imaging Plate Reader”, Molecular Devices Corp.).
To this end, ligand-induced changes in the intracellular concentration of Ca^2+ in recombinant HEK293 cells, which expressed both a cannabinoid receptor (CB1 or CB2) and G-protein Galpha16, were determined. For the studies, cells were sown into 96-well microtiter plates (60 000 cells/well) and left to grow overnight. The medium was removed and the cells were incubated in buffer which contained the fluorescent dye Fluo-4. After this loading with dye, the cells were washed, test substance was added dissolved in buffer, the mixture was incubated for 20 minutes, a known cannabinoid receptor agonist as a reference agonist was added in buffer and, finally, the changes in the intracellular Ca^2+ concentration were measured in the FLIPR unit.

hCB1R [1] = molecular target: T1, hCB1R (Homo sapiens, UniProt P21554); assay: Binding to the CB1 receptor ([3H]-SR141716A displacement)
Procedure, shortened: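 [3H]-SR141716A displacement at hCB1R; test compounds at final 10 μM to 0.005 μM in assay buffer with 1% DMSO, duplicate determinations. Low control 1 μM AM 251, high control binding without compound; IC50 from curve fit, converted to Ki via Cheng-Prusoff using Kd.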

hCB1R [2] = molecular target: T1, hCB1R; assay: In vitro functional assay (FLIPR, intracellular Ca2+) with recombinant HEK293 cells, CB1; type: cell-based; design: expressed in transfected cells; host or cells: HEK293
Text: In Vitro Functional Assays with Recombinant Cells:

[3] = CHO-K1/cannabinoid CB1 protein 2 μg/well, [3H]-SR141716A 0.5 nM, Ki from IC50 by Cheng-Prusoff, average of double determination, read-out: hCB1R, binding Ki
[4] = read-out: hCB2R: FLIPR, IC50, recombinant HEK293 cells expressing CB2 and Galpha16, 20 min preincubation, then reference agonist, Ca2+ change

T1 sequence (P21554 whole entry): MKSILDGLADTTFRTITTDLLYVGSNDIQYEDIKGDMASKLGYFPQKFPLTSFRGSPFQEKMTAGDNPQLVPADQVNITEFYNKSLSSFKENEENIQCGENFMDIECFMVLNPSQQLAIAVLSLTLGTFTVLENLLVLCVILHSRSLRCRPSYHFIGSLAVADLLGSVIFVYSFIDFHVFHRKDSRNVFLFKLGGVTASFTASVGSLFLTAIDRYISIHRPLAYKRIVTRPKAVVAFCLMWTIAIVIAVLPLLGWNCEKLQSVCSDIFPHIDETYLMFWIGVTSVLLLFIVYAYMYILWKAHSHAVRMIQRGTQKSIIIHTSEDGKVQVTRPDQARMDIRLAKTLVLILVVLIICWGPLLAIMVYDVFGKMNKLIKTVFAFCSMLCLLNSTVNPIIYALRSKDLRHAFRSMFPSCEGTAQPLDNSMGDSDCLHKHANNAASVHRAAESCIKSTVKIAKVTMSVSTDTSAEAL
hCB2R, sequence (P34972 whole entry): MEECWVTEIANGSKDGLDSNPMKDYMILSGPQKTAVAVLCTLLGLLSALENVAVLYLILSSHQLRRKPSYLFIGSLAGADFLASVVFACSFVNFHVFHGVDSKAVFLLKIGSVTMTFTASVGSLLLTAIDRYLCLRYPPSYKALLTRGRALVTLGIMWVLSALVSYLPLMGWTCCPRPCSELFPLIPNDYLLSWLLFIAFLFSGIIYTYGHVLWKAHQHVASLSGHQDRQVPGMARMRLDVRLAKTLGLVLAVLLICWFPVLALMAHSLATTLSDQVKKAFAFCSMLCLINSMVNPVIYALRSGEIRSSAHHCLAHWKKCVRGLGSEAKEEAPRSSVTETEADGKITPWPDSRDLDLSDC

SMILES	IC50 (hCB2R)	Ki (hCB1R [1]; [3])	IC50 (hCB1R [2]; recombinant HEK293 cells expressing CB1 and Galpha16, 20 min preincubation, then reference agonist, Ca2+ change, read-out: hCB1R: FLIPR, IC50)	IC50 (hCB2R; [4])	Ki (hCB1R [1])	IC50 (hCB1R [2])
CC1(C)C(=O)N(c2ccnc(C(F)(F)F)c2)C(=O)N1Cc1ccccc1Nc1ccc(F)cc1F [Example 66, 1-[2-(2,4-difluorophenylamino)benzyl]-5,5-dimethyl-3-(2-trifluoromethylpyridin-4-yl)imidazolidine-2,4-dione]	> 10000 nM	7 nM	25 nM	–	–	–
CC1(C)C(=O)N(c2ccc(C#N)c(C(F)(F)F)c2)C(=O)N1Cc1ccccc1Nc1ccc(F)cc1F [Example 11, 4-{3-[2-(2,4-difluorophenylamino)benzyl]-4,4-dimethyl-2,5-dioxoimidazolidin-1-yl}-2-trifluoromethylbenzonitrile]	–	–	–	> 10000 nM	1 nM	0.7 nM
CC1(C)C(=O)N(c2ccc(C#N)c(C(F)(F)F)c2)C(=O)N1Cc1ccc(C(F)(F)F)cc1Nc1ccc(F)cc1F [Example 56, 4-{3-[2-(2,4-difluorophenylamino)-4-trifluoromethylbenzyl]-4,4-dimethyl-2,5-dioxoimidazolidin-1-yl}-2-trifluoromethylbenzonitrile]	–	–	–	> 10000 nM	3 nM	8 nM
CC1(C)C(=O)N(c2ccc(C#N)c(C(F)(F)F)c2)C(=O)N1Cc1ccccc1Nc1ccc(C(F)(F)F)cc1 [Example 5, 4-{3-[2-(4-trifluoromethylphenylamino)benzyl]-4,4-dimethyl-2,5-dioxoimidazolidin-1-yl}-2-trifluoromethylbenzonitrile]	–	–	–	> 10000 nM	7 nM	44 nM
CC1(C)C(=O)N(c2ccc(C#N)c(C(F)(F)F)c2)C(=O)N1Cc1cccc(Cl)c1Nc1ccc(F)cc1F [Example 42, 4-{3-[5-chloro-6-(2,4-difluorophenylamino)benzyl]-4,4-dimethyl-2,5-dioxoimidazolidin-1-yl}-2-trifluoromethylbenzonitrile]	–	–	–	> 10000 nM	1 nM	12 nM
CC1(C)C(=O)N(c2ccc(C#N)c(C(F)(F)F)c2)C(=O)N1Cc1ccccc1Nc1ccccc1 [Example 1, 4-[4,4-Dimethyl-2,5-dioxo-3-(2-phenylaminobenzyl)imidazolidin-1-yl]-2-trifluoromethylbenzonitrile]	–	–	–	> 10000 nM	13 nM	10 nM
COc1ccc(Nc2ccccc2CN2C(=O)N(c3ccc(C#N)c(C(F)(F)F)c3)C(=O)C2(C)C)cc1 [Example 67, 4-{3-[2-(4-methoxyphenylamino)benzyl]-4,4-dimethyl-2,5-dioxoimidazolidin-1-yl}-2-trifluoromethylbenzonitrile]	–	–	–	> 10000 nM	1 nM	1 nM
CC1(C)C(=O)N(c2ccc(F)c(C(F)(F)F)c2)C(=O)N1Cc1ccccc1Nc1ccc(C(=N)N)cc1 [Example 144, 4-{2-[3-(4-Fluoro-3-trifluoromethylphenyl)-5,5-dimethyl-2,4-dioxoimidazolidin-1-ylmethyl]phenylamino}benzamidine hydrochloride]	> 10000 nM	19 nM	–	–	–	–
CC(C)(C)c1cc(N2C(=O)N(Cc3ccccc3Nc3ccc(F)cc3F)C(C)(C)C2=O)ccc1C#N [Example 64, 2-tert-butyl-4-{3-[2-(2,4-difluorophenylamino)benzyl]-4,4-dimethyl-2,5-dioxoimidazolidin-1-yl}benzonitrile]	–	–	–	> 10000 nM	5 nM	16 nM
COC(=O)c1ccc(Nc2ccccc2CN2C(=O)N(c3ccc(C#N)c(C(F)(F)F)c3)C(=O)C2(C)C)cc1 [Example 60, methyl 4-{2-[3-(4-cyano-3-trifluoromethylphenyl)-5,5-dimethyl-2,4-dioxoimidazolidin-1-ylmethyl]phenylamino}benzoate]	–	–	–	> 10000 nM	1 nM	2 nM
